Experimental data as given in patent US20080305978A1, “Cleaning compositions containing a hydrophilic fragrance” (S.C. Johnson & Son, Inc., priority 2007, published 2008).

Experiments:
[1] = Characteristics of fragrance components in words (vapor pressure, water solubility, oxidation); assay type: physicochemical
Excerpt: This test evaluated properties of fragrances with different levels of water solubility with regard to their effect on contributing to streaking/blooming.

[2] = Table 5; cited from earlier work

Row | Characteristics: water solubility ([1]; Table 5, in words) | Water Solubility ([1]; Table 6, in words) | Water Solubility ([1]; text b58, in words) | Characteristics: oxidation ([1]; Table 5, in words) | Characteristics: vapor pressure ([1]; Table 5, in words) | Compound | Vapor Pressure mm/Hg [2]
1 | High water | High | high | – | – | CCOC(=O)CC1(C)OCCO1 [Applinal = Fructone, Applinal] | –
2 | (3) Low water | Low | – | (2) Easily oxidized | (1) Low vapor | CC(C=O)Cc1ccc(C(C)(C)C)cc1 (stereo not drawn) [Lilial] | 0.004 mm/Hg
3 | (2) Reasonable | Medium | – | – | (1) Fairly high | C=CC(C)CCCC(C)(C)O (stereo not drawn) [Dihydromyrcenol] | 0.7 mm/Hg
